# Data: US10821115B2, “Compounds that inhibit Mcl-1 protein” (priority 2017, dated 2020)
# pIC50: −log10 of the molar value. Read-outs that look alike come from different tables or passages of the source.
# Legend:
# [1] = molecular target: recombinant human Mcl-1 (residues 171-327) / Bim interaction (Homo sapiens (Human), UniProt Q07820); experiment: biochemical; assay type: binding; conditions: 0.1 nM Mcl-1(171-327), 0.05 nM biotin-Bim (51-76); read-out: Mcl-1 HTRF IC50
# [2] = system: human multiple myeloma cell line, OPM-2; experiment: Cell viability assay (OPM-2 10 FBS), CellTiter-Glo; assay type: cell-based
# Method in brief: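 Cells were seeded at 3000 cells/well in RPMI 1640 with 10% FBS and exposed to serially diluted compounds for 16 h at 37 °C, 5% CO2.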
# [3] = Homo sapiens, OPM-2, 16 h, read-out: OPM-2 10% FBS IC50 IP, OPM-2 cells, 10% FBS, 16 h incubation
# [4] = read-out: OPM-2 10% FBS IC50 IP, OPM-2 cells, 10% FBS, 16 h incubation
# recombinant human Mcl-1 (residues 171-327) / Bim interaction, sequence (Q07820 171-327): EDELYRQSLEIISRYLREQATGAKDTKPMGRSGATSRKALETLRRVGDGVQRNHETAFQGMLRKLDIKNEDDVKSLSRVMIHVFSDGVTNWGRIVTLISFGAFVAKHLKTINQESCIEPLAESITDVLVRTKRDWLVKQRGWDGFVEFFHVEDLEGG
Compound,pIC50 [1],"pIC50 [2, 3]","pIC50 [2, 4]"
"COC(=O)N1CCN(C[C@]2(OC)/C=C/C[C@H](C)[C@@H](C)S(=O)(=O)NC(=O)c3ccc4c(c3)N(C[C@@H]3CC[C@H]32)C[C@@]2(CCCc3cc(Cl)ccc32)CO4)CC1 [Example 266, methyl 4-(((1S,3′R,6′R,7′S,8′E,11′S, 12′R)-6-chloro-7′-methoxy-11′,12′-dimethyl-13′,13′-dioxido-15′-oxo-3,4-dihydro-2H-spiro[naphthalene-1,22′-[20]oxa[13]thia[1,14]diazatetracyclo [14.7.2.0~3,6~.0~19,24~]pentacosa[8,16,18,24]tetraen]-7′-yl)methyl)-1-piperazinecarboxylate]",9.55,6.14,
"CO[C@@]1(CN2CCC3(CC2)COC3)/C=C/C[C@H](C)[C@@H](C)S(=O)(=O)NC(=O)c2ccc3c(c2)N(C[C@@H]2CC[C@H]21)C[C@@]1(CCCc2cc(Cl)ccc21)CO3 [Example 267, (1S,3′R,6′R,7′S,8′E,11′S,12′R)-6-chloro-7′-methoxy-11′,12′-dimethyl-7′-(2-oxa-7-azaspiro[3.5]non-7-ylmethyl)-3,4-dihydro-2H,15′H-spiro[naphthalene-1,22′-[20]oxa[13]thia[1,14]diazatetracyclo [14.7.2.0~3,6~.0~19,24~]pentacosa[8,16,18,24]tetraen]-15′-one 13′,13′-dioxide]",9.53,6.60,
"CO[C@@]1(CN2CCN(C3(C)COC3)CC2)/C=C/C[C@H](C)[C@@H](C)S(=O)(=O)NC(=O)c2ccc3c(c2)N(C[C@@H]2CC[C@H]21)C[C@@]1(CCCc2cc(Cl)ccc21)CO3 [Example 268, (1S,3′R,6′R,7′S,8′E,11′S,12′R)-6-chloro-7′-methoxy-11′,12′-dimethyl-7′-((4-(3-methyl-3-oxetanyl)-1-piperazinyl)methyl)-3,4-dihydro-2H,15′H-spiro[naphthalene-1,22′-[20]oxa[13]thia[1,14]diazatetracyclo [14.7.2.0~3,6~.0~19,24~]pentacosa[8,16,18,24]tetraen]-15′-one 13′,13′-dioxide]",10.19,7.14,
"COC(=O)CN1CCN(C[C@]2(OC)/C=C/C[C@H](C)[C@@H](C)S(=O)(=O)NC(=O)c3ccc4c(c3)N(C[C@@H]3CC[C@H]32)C[C@@]2(CCCc3cc(Cl)ccc32)CO4)CC1 [Example 269, methyl (4-(((1S,3′R,6′R,7′S,8′E,11′S,12′R)-6-chloro-7′-methoxy-11′,12′-dimethyl-13′,13′-dioxido-15′-oxo-3,4-dihydro-2H-spiro[naphthalene-1,22′-[20]oxa[13]thia[1,14]diazatetracyclo[14.7.2.0-3,6˜.0˜19,24˜]pentacosa[8,16,18,24]tetraen]-7′-yl)methyl)-1-piperazinyl)acetate]",9.98,7.07,
"CO[C@@]1(CN2CCN(C3(C#N)COC3)CC2)/C=C/C[C@H](C)[C@@H](C)S(=O)(=O)NC(=O)c2ccc3c(c2)N(C[C@@H]2CC[C@H]21)C[C@@]1(CCCc2cc(Cl)ccc21)CO3 [Example 272, 3-(4-(((1S,3′R,6′R,7′S,8′E,11′S,12′R )-6-chloro-7′-methoxy-11′,12′-dimethyl-13′,13′-dioxido-15′-oxo-3,4-dihydro-2H-spiro[naphthalene-1,22′-[20]oxa[13]thia[1,14]diazatetracyclo [14.7.2.0~3,6~.0~19,24~]pentacosa[8,16,18,24]tetraen]-7′-yl)methyl)-1-piperazinyl)-3-oxetanecarbonitrile]",9.84,6.86,
CO[C@@]1(CN2CCN3CC[C@H](F)C[C@@H]3C2)/C=C/C[C@H](C)[C@@H](C)S(=O)(=O)NC(=O)c2ccc3c(c2)N(C[C@@H]2CC[C@H]21)C[C@@]1(CCCc2cc(Cl)ccc21)CO3 [Example 274],9.55,,6.63
"CO[C@@]1(CN2CC(N3CCS(=O)(=O)CC3)C2)/C=C/C[C@H](C)[C@@H](C)S(=O)(=O)NC(=O)c2ccc3c(c2)N(C[C@@H]2CC[C@H]21)C[C@@]1(CCCc2cc(Cl)ccc21)CO3 [Example 279, (1S,3′R,6′R,7′S,8′E,11′S,12′R)-6-chloro-7′-((3-(1,1-dioxido-4-thiomorpholinyl)-1-azetidinyl)methyl)-7′-methoxy-11′,12′-dimethyl-3,4-dihydro-2H,15′H-spiro[naphthalene-1,22′-[20]oxa[13]thia[1,14]diazatetracyclo [14.7.2.0~3,6~.0~19,24~]pentacosa[8,16,18,24]tetraen]-15′-one 13′,13′-dioxide]",10.08,6.34,
"CO[C@@]1(CN2CCN(C3CN(C(C)=O)C3)CC2)/C=C/C[C@H](C)[C@@H](C)S(=O)(=O)NC(=O)c2ccc3c(c2)N(C[C@@H]2CC[C@H]21)C[C@@]1(CCCc2cc(Cl)ccc21)CO3 [Example 280, (1S,3′R,6′R,7′S,8′E,11′S,12′R)-7′-((4-(1-acetyl-3-azetidinyl)-1-piperazinyl)methyl)-6-chloro-7′-methoxy-11′,12′-dimethyl-3,4-dihydro-2H,15′H-spiro[naphthalene-1,22′-[20]oxa[13]thia[1,14]diazatetracyclo [14.7.2.0~3,6~.0~19,24~]pentacosa[8,16,18,24]tetraen]-15′-one 13′,13′-dioxide]",10.28,7.14,
"CO[C@@]1(CN2CCN(C3CCC3)CC2)/C=C/C[C@H](C)[C@@H](C)S(=O)(=O)NC(=O)c2ccc3c(c2)N(C[C@@H]2CC[C@H]21)C[C@@]1(CCCc2cc(Cl)ccc21)CO3 [Example 281, (1S,3′R,6′R,7′S,8′E,11′S,12′R)-6-chloro-7′-((4-cyclobutyl-1-piperazinyl)methyl)-7′-methoxy-11′,12′-dimethyl-3,4-dihydro-2H,15′H-spiro[naphthalene-1,22′-[20]oxa[13]thia[1,14]diazatetracyclo [14.7.2.0~3,6~.0~19,24~]pentacosa[8,16,18,24]tetraen]-15′-one 13′,13′-dioxide]",9.74,6.82,
"CO[C@@]1(CN2CCN(C3CN(C)C3)CC2)/C=C/C[C@H](C)[C@@H](C)S(=O)(=O)NC(=O)c2ccc3c(c2)N(C[C@@H]2CC[C@H]21)C[C@@]1(CCCc2cc(Cl)ccc21)CO3 [Example 282, (1S,3′R,6′R,7′S,8′E,11′S,12′R)-6-chloro-7′-methoxy-11′,12′-dimethyl-7′-((4-(1-methyl-3-azetidinyl)-1-piperazinyl)methyl)-3,4-dihydro-2H,15′H-spiro[naphthalene-1,22′-[20]oxa[13]thia[1,14]diazatetracyclo [14.7.2.0~3,6~.0~19,24~]pentacosa[8,16,18,24]tetraen]-15′-one 13′,13′-dioxide]",9.93,6.31,
"CO[C@@]1(CN2CCC3(CC2)CN(C)C(=O)O3)/C=C/C[C@H](C)[C@@H](C)S(=O)(=O)NC(=O)c2ccc3c(c2)N(C[C@@H]2CC[C@H]21)C[C@@]1(CCCc2cc(Cl)ccc21)CO3 [Example 290, (1S,3′R,6′R,7′S,8′E,11′S,12′R)-6-chloro-7′-methoxy-11′,12′-dimethyl-7′-((3-methyl-2-oxo-1-oxa-3,8-diazaspiro[4.5]dec-8-yl)methyl)-3,4-dihydro-2H,15′H-spiro[naphthalene-1,22′-[20]oxa[13]thia[1,14]diazatetracyclo [14.7.2.0~3,6~.0~19,24~]pentacosa[8,16,18,24]tetraen]-15′-one 13′,13′-dioxide]",9.67,6.83,
"CO[C@@]1(CN2CC3(C2)CN(C)C(=O)O3)/C=C/C[C@H](C)[C@@H](C)S(=O)(=O)NC(=O)c2ccc3c(c2)N(C[C@@H]2CC[C@H]21)C[C@@]1(CCCc2cc(Cl)ccc21)CO3 [Example 291, (1S,3′R,6′R,7′S,8′E,11′S,12′R)-6-chloro-7′-methoxy-11′,12′-dimethyl-7′-((7-methyl-6-oxo-5-oxa-2,7-diazaspiro[3.4]oct-2-yl)methyl)-3,4-dihydro-2H,15′H-spiro[naphthalene-1,22′-[20]oxa[13]thia[1,14]diazatetracyclo [14.7.2.0~3,6~.0~19,24~]pentacosa[8,16,18,24]tetraen]-15′-one 13′,13′-dioxide]",10.08,6.98,
CO[C@]1(CN2CCN3CCC(F)(F)C[C@@H]3C2)/C=C/C[C@H](C)[C@@H](C)S(=O)(=O)NC(=O)c2ccc3c(c2)N(C[C@@H]2CC[C@H]21)C[C@@]1(CCCc2cc(Cl)ccc21)CO3 [Example 292],9.45,,6.40
"CO[C@@]1(CN2CCN(c3ccc(B(O)O)c(C(C)=O)c3)CC2)/C=C/C[C@H](C)[C@@H](C)S(=O)(=O)NC(=O)c2ccc3c(c2)N(C[C@@H]2CC[C@H]21)C[C@@]1(CCCc2cc(Cl)ccc21)CO3 [Example 296, (2-acetyl-4-(4-(((1S,3′R,6′R,7′S,8′E,11′S, 12′R)-6-chloro-7′-methoxy-11′,12′-dimethyl-13′,13′-dioxido-15′-oxo-3,4-dihydro-2H-spiro[naphthalene-1,22′-[20]oxa[13]thia[1,14]diazatetracyclo [14.7.2.0~3,6~.0~19,24~]pentacosa[8,16,18,24]tetraen]-7′-yl)methyl)-1-piperazinyl)phenyl)boronic acid]",9.68,5.88,
"COCC(C)(C)N1CCN(C[C@]2(OC)/C=C/C[C@H](C)[C@@H](C)S(=O)(=O)NC(=O)c3ccc4c(c3)N(C[C@@H]3CC[C@H]32)C[C@@]2(CCCc3cc(Cl)ccc32)CO4)CC1 [Example 297, (1S,3′R,6′R,7′S,8′E,11′S,12′R)-6-chloro-7′-methoxy-7′-((4-(2-methoxy-1,1-dimethylethyl)-1-piperazinyl)methyl)-11′,12′-dimethyl-3,4-dihydro-2H,15′H-spiro[naphthalene-1,22′-[20]oxa[13]thia[1,14]diazatetracyclo [14.7.2.0~3,6~.0~19,24~]pentacosa[8,16,18,24]tetraen]-15′-one 13′,13′-dioxide]",9.89,7.18,
